Like-named read-outs stand apart in the source and are kept apart here. Bridge positions count the residues as written; N and C are the ends. Square brackets hold non-standard residues; d marks the D form. Peptide text beside a SMILES is read from it. * marks the point of attachment. NH(3,5-(CF3)2-benzyl) = FC(F)(F)c1cc(CN*)cc(C(F)(F)F)c1; X1 = OC[C@H]1OC(*)[C@H](O)[C@@H](O)[C@@H]1O; Dmt = Cc1cc(O)cc(C)c1C[C@H](N)C(=O)O; dPen = CC(C)(S)[C@@H](N)C(=O)O; Nle = CCCC[C@H](N)C(=O)O
Tests used:
[1] = target: T1, human δ opioid receptors (hDOR) (Homo sapiens, UniProt P41143); assay: Radioligand competition binding, [3H]DPDPE, hDOR membranes
T1 construct: expressed in transfected cells; host or cells: HN9.10 neuroblastoma cell line, pCDNA3, neomycin-selected clones
T1 sequence (P41143 whole entry): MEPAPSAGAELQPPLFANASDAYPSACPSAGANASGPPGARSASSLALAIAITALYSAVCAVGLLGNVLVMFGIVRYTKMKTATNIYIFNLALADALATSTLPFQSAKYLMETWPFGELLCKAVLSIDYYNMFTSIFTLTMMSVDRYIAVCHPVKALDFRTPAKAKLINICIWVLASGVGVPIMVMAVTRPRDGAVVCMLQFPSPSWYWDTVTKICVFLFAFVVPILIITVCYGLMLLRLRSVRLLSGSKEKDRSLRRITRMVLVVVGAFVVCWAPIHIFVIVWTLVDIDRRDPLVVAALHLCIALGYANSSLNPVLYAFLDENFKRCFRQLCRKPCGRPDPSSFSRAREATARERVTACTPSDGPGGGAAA

[2] = target: T2, rat μ opioid receptors (rMOR) (Rattus norvegicus, UniProt P33535); assay: Radioligand competition binding, [3H]DAMGO, rMOR membranes
T2 construct: expressed in transfected cells; host or cells: HN9.10 neuroblastoma cell line, pCDNA3, neomycin-selected clones
T2 sequence (P33535 whole entry): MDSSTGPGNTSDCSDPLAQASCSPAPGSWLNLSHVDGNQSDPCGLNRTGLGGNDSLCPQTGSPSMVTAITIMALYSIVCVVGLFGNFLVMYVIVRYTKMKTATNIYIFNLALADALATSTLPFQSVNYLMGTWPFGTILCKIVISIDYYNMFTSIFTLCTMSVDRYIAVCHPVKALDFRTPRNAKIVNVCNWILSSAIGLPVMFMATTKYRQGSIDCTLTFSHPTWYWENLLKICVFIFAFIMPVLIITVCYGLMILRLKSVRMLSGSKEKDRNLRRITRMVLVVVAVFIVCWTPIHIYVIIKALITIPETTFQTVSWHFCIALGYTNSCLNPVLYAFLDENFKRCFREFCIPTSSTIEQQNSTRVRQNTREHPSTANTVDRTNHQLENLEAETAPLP

[3] = target: T3, rat NK1 (rNK1) receptor (Rattus norvegicus, UniProt P14600); assay: Radioligand competition binding, [3H]substance P, rNK1/CHO membranes
T3 construct: expressed in transfected cells; host or cells: CHO (rNK-1/CHO cell line from Dr. James Krause)
T3 sequence (P14600 whole entry): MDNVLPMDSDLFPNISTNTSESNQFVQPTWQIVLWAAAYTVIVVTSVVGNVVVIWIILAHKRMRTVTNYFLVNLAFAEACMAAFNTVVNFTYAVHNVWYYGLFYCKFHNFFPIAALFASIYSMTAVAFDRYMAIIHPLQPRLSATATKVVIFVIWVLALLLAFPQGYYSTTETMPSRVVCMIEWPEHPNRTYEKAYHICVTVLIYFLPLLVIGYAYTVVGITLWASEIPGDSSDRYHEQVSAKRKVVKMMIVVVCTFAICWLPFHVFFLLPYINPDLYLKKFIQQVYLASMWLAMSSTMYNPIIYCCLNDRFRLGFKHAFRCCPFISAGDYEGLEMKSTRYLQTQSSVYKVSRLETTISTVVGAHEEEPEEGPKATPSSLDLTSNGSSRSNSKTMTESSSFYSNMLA

[4] = target: T2, rat μ opioid receptors (rMOR); assay: biochemical; assay type: biochemical; details: for EC50: read-out: GTP binding rMOR EC50
[5] = In vitro stability in rat plasma at 37° C.; assay type: in vitro ADME; details: for half-life at 50 μg/mL: rat, rat plasma, FIG. 47, read-out: T1/2 in rat plasma; for stability in the rat plasma: words
Protocol: The derivative compounds were tested for their metabolite stability. The compounds were incubated in rat plasma at 37° C., and aliquots were withdrawn at various time points and analyzed by HPLC to determine the concentration of remaining compound derivatives (FIGS. 15-16, 36, and 47-48).
In Vitro Stability of compound derivatives in Rat Plasm (Yamamoto, 2007, J. Am. Chem. Soc. submitted). Stock solution of compounds (50 mg/mL in DMSO) were diluted 1000-fold into rat plasma (Lot 24927, Pel-Freez Biologicals, Rogers, Ak.) to result in an incubation concentration of 50 μg/mL. All samples were incubated at 37° C. for 6 h, and 200 μL of aliquots were withdrawn at 1 h, 2 h, 4 h and 6 h. […] The samples were run in triplicate. Discussion.

[6] = target: T4, human NK1 receptor (hNK1) (Homo sapiens, UniProt P25103); assay: Radioligand competition binding, [3H]-Substance P, hNK1
T4 construct: expressed in transfected cells
T4 sequence (P25103 whole entry): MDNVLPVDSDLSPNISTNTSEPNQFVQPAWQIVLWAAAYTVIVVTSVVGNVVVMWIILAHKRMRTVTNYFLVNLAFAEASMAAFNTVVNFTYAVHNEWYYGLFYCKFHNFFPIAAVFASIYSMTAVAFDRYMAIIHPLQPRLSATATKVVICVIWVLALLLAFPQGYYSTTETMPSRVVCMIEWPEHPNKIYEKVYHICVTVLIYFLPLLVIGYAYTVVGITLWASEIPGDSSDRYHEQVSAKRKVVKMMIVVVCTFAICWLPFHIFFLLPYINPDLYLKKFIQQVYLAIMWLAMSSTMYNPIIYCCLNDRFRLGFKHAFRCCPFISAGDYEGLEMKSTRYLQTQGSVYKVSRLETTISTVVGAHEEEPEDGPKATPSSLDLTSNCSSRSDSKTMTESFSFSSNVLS

[7] = target: T5, δ opioid receptors (MVD) (Mus musculus, UniProt P32300); assay: Mouse isolated vas deferens (MVD) assay, opioid agonist
T5 construct: from tissue; host or cells: mouse (ICR) isolated vas deferens
T5 sequence (P32300 whole entry): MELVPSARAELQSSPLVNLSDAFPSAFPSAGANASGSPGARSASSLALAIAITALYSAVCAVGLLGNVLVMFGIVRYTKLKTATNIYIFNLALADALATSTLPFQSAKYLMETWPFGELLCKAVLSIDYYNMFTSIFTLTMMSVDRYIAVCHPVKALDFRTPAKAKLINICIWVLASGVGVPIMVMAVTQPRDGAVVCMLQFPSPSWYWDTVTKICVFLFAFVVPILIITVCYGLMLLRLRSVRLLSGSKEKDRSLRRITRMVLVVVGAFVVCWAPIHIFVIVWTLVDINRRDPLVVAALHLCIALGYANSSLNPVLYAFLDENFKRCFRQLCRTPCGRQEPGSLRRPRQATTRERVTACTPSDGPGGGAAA

[8] = target: T6, Substance P receptors (guinea pig NK1) (Cavia porcellus, UniProt P30547); assay: Guinea pig isolated ileum (GPI) assay with substance P stimulation in presence of 1 μM naloxone; details: Table 39; at 30 nM
T6 construct: from tissue; host or cells: guinea pig (Hartley) ileum LMMP, 1 μM naloxone present
T6 sequence (P30547 whole entry): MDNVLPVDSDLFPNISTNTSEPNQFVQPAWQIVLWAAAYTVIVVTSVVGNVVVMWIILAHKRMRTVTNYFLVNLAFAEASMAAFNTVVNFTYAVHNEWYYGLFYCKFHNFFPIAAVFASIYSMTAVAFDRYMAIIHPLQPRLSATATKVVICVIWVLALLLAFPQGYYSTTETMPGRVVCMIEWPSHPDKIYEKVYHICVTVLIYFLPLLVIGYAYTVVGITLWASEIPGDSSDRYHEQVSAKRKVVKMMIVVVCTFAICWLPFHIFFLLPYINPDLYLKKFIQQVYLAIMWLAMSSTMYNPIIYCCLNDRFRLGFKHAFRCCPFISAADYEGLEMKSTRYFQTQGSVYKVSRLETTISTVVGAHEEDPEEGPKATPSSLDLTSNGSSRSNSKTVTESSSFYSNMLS

[9] = Affinity rNK1 (Ki; nM), Table 23
[10] = Table 39, read-out: GTP binding rMOR Emax

Row | Structure (SMILES) | Ki [2] | Ki [3, 9] | half-life at 50 μg/mL [5] | Emax [4, 10] | Ki [6] | IC50 [7] | GPI/LMMP SP Agonist (IC50; nM) [8] | stability in the rat plasma [5] | also measured
1 | CCCC[C@@H]1NC(=O)[C@H](Cc2ccccc2)NC(=O)CNC(=O)[C@H](NC(=O)[C@@H](N)Cc2ccc(O)cc2)C(C)(C)SSC(C)(C)[C@@H](C(=O)N[C@@H](Cc2c[nH]c3ccccc23)C(=O)NCc2cc(C(F)(F)F)cc(C(F)(F)F)c2)NC(=O)[C@@H]2CCCN2C1=O [TY047] (HELM PEPTIDE1{Y.[CC(C)(S[*:3])[C@@H](N[*:1])C(=O)[*:2]].G.F.[Nle].P.[Pen].W.[FC(F)(F)c1cc(CN[*:1])cc(C(F)(F)F)c1]}$PEPTIDE1,PEPTIDE1,2:R3-7:R3$$$V2.0; N-terminus assumed) | 1970 nM | 163 nM | > 24 h | – | – | – | – | – | Ki [1]: 152 nM; EC50 ([4]; Table 39): 2910 nM
2 | CCCC[C@@H]1NC(=O)[C@H](Cc2ccccc2)NC(=O)CNC(=O)[C@H](NC(=O)[C@@H](N)Cc2ccc(O)cc2)C(C)(C)SSC(C)(C)[C@H](C(=O)N[C@@H](Cc2c[nH]c3ccccc23)C(=O)NCc2cc(C(F)(F)F)cc(C(F)(F)F)c2)NC(=O)[C@@H]2CCCN2C1=O [TY048] (H-Y[dPen]GF[Nle]P[dPen]W-{NH(3,5-(CF3)2-benzyl)}; disulfide 2-7; N-terminus assumed) | – | – | > 24 h | 29% | – | – | – | – | Ki ([3]; Table 23, read-out: Affinity rNK1 (Ki; nM)): 26 nM
3 | CC(C)C[C@H](NC(=O)[C@@H]1CCCN1C(=O)[C@@H]1NC(=O)[C@H](Cc2ccccc2)NC(=O)CNC(=O)[C@H](NC(=O)[C@@H](N)Cc2ccc(O)cc2)C(C)(C)SSC1(C)C)C(=O)N[C@@H](Cc1c[nH]c2ccccc12)C(=O)NCc1cc(C(F)(F)F)cc(C(F)(F)F)c1 [TY049] | – | 4.54 nM | > 24 h | – | 0.18 nM | – | – | – | Emax ([4]; read-out: GTP binding rMOR Emax): 25%
4 | CCCC[C@H](NC(=O)[C@H](Cc1ccccc1)NC(=O)CNC(=O)[C@@H](C)NC(=O)[C@@H](N)Cc1ccc(O)cc1)C(=O)N1CCC[C@H]1C(=O)N[C@@H](CC(C)C)C(=O)N[C@@H](COC1O[C@H](CO)[C@@H](O)[C@H](O)[C@H]1O)C(=O)N[C@@H](Cc1c[nH]c2ccccc12)C(=O)NCc1cc(C(F)(F)F)cc(C(F)(F)F)c1 (some centres unmarked) [TY055] | 30 nM | – | – | – | 0.052 nM | 17.4 nM | none | stable | –
5 | CCCC[C@H](NC(=O)[C@H](Cc1ccccc1)NC(=O)CNC(=O)[C@@H](C)NC(=O)[C@@H](N)Cc1c(C)cc(O)cc1C)C(=O)N1CCC[C@H]1C(=O)N[C@@H](COC1O[C@H](CO)[C@@H](O)[C@H](O)[C@H]1O)C(=O)N[C@@H](Cc1c[nH]c2ccccc12)C(=O)NCc1cc(C(F)(F)F)cc(C(F)(F)F)c1 (some centres unmarked) [TY056] (H-[Dmt][dA]GF[Nle]PS(X1)W-{NH(3,5-(CF3)2-benzyl)}; N-terminus assumed) | 1.9 nM | – | – | 66% | 0.0017 nM | 3.62 nM | none | stable | Ki ([3]; Affinity rNK1 (Ki; nM), Table 25): 10 nM; EC50 ([4]; Table 25): 44.9 nM; Emax ([4]; Table 25, read-out: GTP binding rMOR Emax (%)): 66%
